Columns and labels:
[1] = system: mast cells in abdominal cavity of rat; details: literature report; cited from earlier work
[2] = system: CεGT inducible expression by IL-4 in human peripheral blood lymphocytes; test: expression of IgE heavy chain germline transcript (CεGT) induced by IL-4 in human peripheral blood lymphocytes; assay type: cell-based; details: strictinin 25 μM added at the same time with IL-4, human peripheral blood lymphocytes, FIG. 4
Description: (§1) Each of Fr. 1 to 5 in Experimental Example 1 was evaluated for its antiallergic action in vitro by a method for the expression of a transcript of an IgE heavy chain germline transcript which was to investigate the suppression of IgE production in human B cells (IgE class switch suppression). This is a method utilizing the fact that, when human B cells are stimulated by IL-4 to induce the production of IgE, a transcription is started from the upstream intron corresponding to an ε region (Cε) in the constant domain gene of the Ig gene whereupon a transcript (CεGT: germline transcript) is expressed and, after that, a class switch of IgE is resulted by a DNA recombination. CεGT is an RNA which is always expressed before the IgE production is induced and the expressed amount of CεGT is proportional to the class switch amount of the IgE gene. Therefore, when the degree of expressed amount of CεGT is detected, it is possible to estimate the IgE class switch amount.
Human peripheral blood normal cells (monocytes; separated from the blood which was collected from a healthy human volunteer) was used instead of the human B cell line DND 39 of Experimental Example 3 and an antiallergic activity was measured by the same way as in the method for the expression of an IgE heavy chain germline transcript mentioned in Experimental Example 2. […]

[3] = system: CεGT inducible expression by IL-4 in human B cell line DND 39; test: expression of IgE heavy chain germline transcript (CεGT) induced by IL-4 in human B cell line DND 39 (IgE class switch suppression); assay type: cell-based; details: strictinin 1, 10 and 25 μM added at the same time with IL-4, DND 39, FIG. 3
Description: as §1
A method for the expression of an IgE heavy chain germline transcript was carried out according to the following procedures. […]
Then, a cDNA library was prepared according to the following procedure. First, concentration of the extracted total RNA was measured by an absorptiometer, a portion of 10 μg was taken in a 0.6 mL tube and water was added thereto to make 11.8 μL. […]

SMILES | liberation of histamine from mast cells [1] | IgE class switch by addition of IL-4 (CεGT inducible expression) [2] | IgE class switch by addition of IL-4 (CεGT inducible expression) [3]
O=C(O[C@@H]1Cc2c(O)cc(O)cc2O[C@@H]1c1ccc(O)c(O)c1)c1cc(O)c(O)c(O)c1 [epicatechin gallate] | suppress | – | –
O=C(O[C@@H]1Cc2c(O)cc(O)cc2O[C@@H]1c1cc(O)c(O)c(O)c1)c1cc(O)c(O)c(O)c1 [epigallocatechin gallate] | suppress | – | –
O=C(O[C@@H]1O[C@@H]2COC(=O)c3cc(O)c(O)c(O)c3-c3c(cc(O)c(O)c3O)C(=O)O[C@H]2[C@H](O)[C@H]1O)c1cc(O)c(O)c(O)c1 [strictinin] | – | strongly suppressed | strongly suppressed

Source: US6638524B2, “Cosmetics, foods and beverages supplemented with purified strictinin” (National Agricultural Research Organization, priority 2000, dated 2003)
